Reference: PubChem BioAssay AID1963845 (Molecular Pharmacology Branch, DTP, NCI, 2024)

System: 429239-143-T-J1-PDC complex spheroid viability
Assay: Anticancer human tumor 429239-143-T-J1-PDC patient-derived small cell lung carcinoma cell line growth inhibition [POLQ]
Settings: for IC50: curve of first compound; for viability, T/C: stronger effect = lower value
Procedure: Multicellular complex tumor spheroid response to Polymerase (POL) inhibitors (novobiocin, ART-558, RP6685) in combination with a variety of drugs and investigational agents in selected tumor cell lines
The POL inhibitors (novobiocin, ART-558, and RP6685) were evaluated both individually and in combination with standard of care and investigational anticancer small molecules within a complex spheroid model of solid tumors. . Complex spheroids include a stromal component modeled by human endothelial cells (HUVEC) and fibroblasts modeled by human mesenchymal stem cells (MSCs). The concentration ranges selected for each drug and investigational agent were based upon clinically achievable concentrations if the clinical Cmax of the agent was known.
Compounds. The drugs and investigational agents: novobiocin (NSC847541), ART-558 (NSC835418), RP-6685 (NSC848927), peposertib (NSC802822), ceralasertib (NSC780249), elimusertib (NSC800525), camonsertib (NSC841442), AZD-1390 (NSC803789), olaparib (NSC753686), talazoparib (NSC767125), rucaparib (NSC756644), sotorasib (NSC818433), MRTX-1133 (NSC836407), SN-38 (NSC673596), topotecan (NSC609699), epotoside (NSC141540), doxorubicin (NSC123127), gemcitabine (NSC613327), 5-fluorouracil (NSC19893), paclitaxel (NSC125973), vemurafenib (NSC761431), MSA-2 (NSC828583), SN-011 (NSC837082), adavosertib (NSC754352), prexasertib (NSC758257), carboplatin (NSC241240) and oxaliplatin (NSC266046), were obtained from the National Cancer Institute (NCI) Developmental Therapeutics Program Chemical Repository (21). The FDA-approved anticancer drug set is available from the Developmental Therapeutics Program at https://dtp.cancer.gov/organization/dscb/obtaining/. […] The stock solutions were prepared in dimethyl sulfoxide (DMSO, Sigma-Aldrich, St. Louis, MO, cat. D2650), except for the platinum compounds which were prepared in saline (Quality Biological, Gaithersburg, MD, cat. 114-055-101), at 800-fold the tested concentration and stored at -70 degrees C prior to their use. All drugs and investigational agents were tested over a range starting from a high concentration at or near the clinical Cmax and decreasing in half-log increments. If the clinical Cmax for an agent had not been determined, the highest concentration tested was 10 microM, except for SN-38, which was tested at a high concentration of 1 microM.
Cell Culture. All cells were maintained in an incubator at 37 degrees C and 5% CO2 with 95% humidity. The PDC lines were cultured according to standard operating procedures established by the NCI PDMR (https://pdmr.cancer.gov). Table 3 of the manuscript, lists the cell lines along with the number of the three cell types plated to form the mct-spheroids and media for tumor cell growth. After thawing, all PDC lines, except 997537-175-T-J1-PDC and 415267-285-R-J2-PDC, were cultured in Matrigel-coated flasks prepared with a working solution of 1X Ham's F-12 nutrient mix, without supplementation (Thermo Fisher Scientific, cat. 11765054), 100 U/mL penicillin-streptomycin (Thermo Fisher Scientific, cat. 15140122), and 2.5% Matrigel (Corning Inc., Corning, NY, cat. 354248) for the first three passages. The two PDC lines 997537-175-T-J1-PDC and 415267-285-R-J2-PDC were cultured on uncoated flasks. The 857933-349-R-J2-PDC line was cultured in 6C/Colon 1B media containing advanced DMEM/F-12 (Thermo Fisher Scientific, cat. 12634028), 10 mM HEPES (Thermo Fisher Scientific, cat. 15630080), 1X GlutaMAX supplement (Thermo Fisher Scientific, cat. 35050061), 0.1 mg/mL primocin (InvivoGen, San Diego, CA, cat. ant-pm-2), 10% defined fetal bovine serum, heat inactivated (HyClone Laboratories Inc., Logan, UT, cat. SH30070.03HI), 50% L-WRN conditioned media (ATCC, cat. CRL-3276), 1.25 mM N-Acetyl-L-cysteine (Sigma-Aldrich, cat. A9165), 10 mM nicotinamide (Sigma-Aldrich, cat. N0636), 1X B-27 supplement (Thermo Fisher Scientific, cat. 17504044), 1X N-2 supplement (Thermo Fisher Scientific, cat. […]

[1] = second compound 0.0316 µM, first compound 0.0316 µM
[2] = second compound 0.0316 µM, first compound 0.1 µM
[3] = second compound 0.0316 µM, first compound 0.316 µM
[4] = second compound 0.0316 µM, first compound 1 µM
[5] = second compound 0.0316 µM, first compound 3.16 µM
[6] = second compound 0.0316 µM, first compound 10 µM
[7] = second compound 0.1 µM, first compound 0.0316 µM
[8] = second compound 0.1 µM, first compound 0.1 µM
[9] = second compound 0.1 µM, first compound 0.316 µM
[10] = second compound 0.1 µM, first compound 1 µM
[11] = second compound 0.1 µM, first compound 3.16 µM
[12] = second compound 0.1 µM, first compound 10 µM
[13] = second compound 0.316 µM, first compound 0.0316 µM
[14] = second compound 0.316 µM, first compound 0.1 µM
[15] = second compound 0.316 µM, first compound 0.316 µM
[16] = second compound 0.316 µM, first compound 1 µM
[17] = second compound 0.316 µM, first compound 3.16 µM
[18] = second compound 0.316 µM, first compound 10 µM
[19] = second compound 1 µM, first compound 0.0316 µM
[20] = second compound 1 µM, first compound 0.1 µM
[21] = second compound 1 µM, first compound 0.316 µM
[22] = second compound 1 µM, first compound 1 µM
[23] = second compound 1 µM, first compound 3.16 µM
[24] = second compound 1 µM, first compound 10 µM
[25] = second compound 3.16 µM, first compound 0.0316 µM
[26] = second compound 3.16 µM, first compound 0.1 µM
[27] = second compound 3.16 µM, first compound 0.316 µM
[28] = second compound 3.16 µM, first compound 1 µM
[29] = second compound 3.16 µM, first compound 3.16 µM
[30] = second compound 3.16 µM, first compound 10 µM
[31] = second compound 10 µM, first compound 0.0316 µM
[32] = second compound 10 µM, first compound 0.1 µM
[33] = second compound 10 µM, first compound 0.316 µM
[34] = second compound 10 µM, first compound 1 µM
[35] = second compound 10 µM, first compound 3.16 µM
[36] = second compound 10 µM, first compound 10 µM
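Also: luminescence signal used as surrogate measure of viable cells; spheroids exposed to compounds for seven days before readout.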
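For viability, T/C in this document: 100% = DMSO vehicle control viability as luminescence relative to vehicle.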

Compound `CC1COCCN1c1cc(C2(O)CC3CCC(C2)O3)c2cnn(-c3ccn[nH]3)c2n1` (stereo unspecified) + COC1C(OC(N)=O)C(O)C(Oc2ccc3c(O)c(NC(=O)c4ccc(O)c(CC=C(C)C)c4)c(=O)oc3c2C)OC1(C)C has an IC50 (second compound 0.0316 µM) of 48.7 nM, an IC50 (second compound 0.1 µM) of 63.6 nM and an IC50 (second compound 0.316 µM) of 49 nM. For the same compound, the IC50 (second compound 1 µM) was 65.9 nM, the IC50 (second compound 3.16 µM) was 57.8 nM and the IC50 (second compound 10 µM) was 43.2 nM. For the same compound, the viability, T/C [1] was 60.6%, the viability, T/C [2] was 32.4% and the viability, T/C [3] was 15.4%. The viability, T/C [4] was 9.3%, the viability, T/C [5] was 7.39% and the viability, T/C [6] was 6.59%. For the same compound, the viability, T/C [7] was 69.8%, the viability, T/C [8] was 37.4% and the viability, T/C [9] was 16%. It also gave a viability, T/C [10] of 9.73%, a viability, T/C [11] of 7.67% and a viability, T/C [12] of 5.38%. For the same compound, the viability, T/C [13] was 62.4%, the viability, T/C [14] was 28.4% and the viability, T/C [15] was 18.1%. It also gave a viability, T/C [16] of 9.94%, a viability, T/C [17] of 6.92% and a viability, T/C [18] of 5.8%. It also gave a viability, T/C [19] of 67.5%, a viability, T/C [20] of 39.9% and a viability, T/C [21] of 19.2%. For the same compound, the viability, T/C [22] was 7.99%, the viability, T/C [23] was 7.48% and the viability, T/C [24] was 5.25%. The viability, T/C [25] was 69.7%, the viability, T/C [26] was 31.6% and the viability, T/C [27] was 17.1%. It also gave a viability, T/C [28] of 8.72%, a viability, T/C [29] of 6.53% and a viability, T/C [30] of 5.31%. For the same compound, the viability, T/C [31] was 56.7%, the viability, T/C [32] was 32% and the viability, T/C [33] was 18.1%. For the same compound, the viability, T/C [34] was 8.41%, the viability, T/C [35] was 9.41% and the viability, T/C [36] was 5.38%.

Work on `CC1COCCN1c1cc(C2(O)CC3CCC(C2)O3)c2cnn(-c3ccn[nH]3)c2n1` (stereo unspecified) + Cc1cccc(N(C)C(=O)C2C(O)CCN2c2nc(C)cc(C(F)(F)F)c2C#N)c1 yielded an IC50 (second compound 0.0316 µM) of 67.2 nM, an IC50 (second compound 0.1 µM) of 66.8 nM and an IC50 (second compound 0.316 µM) of 61.7 nM. The IC50 (second compound 1 µM) was 71 nM, the IC50 (second compound 3.16 µM) was 47.8 nM and the IC50 (second compound 10 µM) was 63 nM. For the same compound, the viability, T/C [1] was 76.8%, the viability, T/C [2] was 35.8% and the viability, T/C [3] was 17.6%. For the same compound, the viability, T/C [4] was 10.3%, the viability, T/C [5] was 7.41% and the viability, T/C [6] was 5.4%. The viability, T/C [7] was 69.6%, the viability, T/C [8] was 39.6% and the viability, T/C [9] was 19.3%. It also gave a viability, T/C [10] of 11.8%, a viability, T/C [11] of 7.54% and a viability, T/C [12] of 5.93%. It also gave a viability, T/C [13] of 62.1%, a viability, T/C [14] of 41.3% and a viability, T/C [15] of 16.2%. For the same compound, the viability, T/C [16] was 9.23%, the viability, T/C [17] was 9.02% and the viability, T/C [18] was 5.86%. For the same compound, the viability, T/C [19] was 73.8%, the viability, T/C [20] was 40% and the viability, T/C [21] was 17.7%. The viability, T/C [22] was 9.58%, the viability, T/C [23] was 8.48% and the viability, T/C [24] was 5.82%. The viability, T/C [25] was 60.1%, the viability, T/C [26] was 31.8% and the viability, T/C [27] was 17.9%. For the same compound, the viability, T/C [28] was 10.3%, the viability, T/C [29] was 8.26% and the viability, T/C [30] was 6.08%. For the same compound, the viability, T/C [31] was 63%, the viability, T/C [32] was 41.5% and the viability, T/C [33] was 18.5%. The viability, T/C [34] was 10.8%, the viability, T/C [35] was 9.19% and the viability, T/C [36] was 5.28%.

`COc1cc2cc(C(=O)CCC(=O)O)sc2cc1OC` + COC1C(OC(N)=O)C(O)C(Oc2ccc3c(O)c(NC(=O)c4ccc(O)c(CC=C(C)C)c4)c(=O)oc3c2C)OC1(C)C was tested, and the IC50 (second compound 0.0316 µM) was > 10000 nM, the IC50 (second compound 0.1 µM) was > 10000 nM and the IC50 (second compound 0.316 µM) was > 10000 nM. For the same compound, the IC50 (second compound 1 µM) was > 10000 nM, the IC50 (second compound 3.16 µM) was > 10000 nM and the IC50 (second compound 10 µM) was > 10000 nM. It also gave a viability, T/C [1] of 113%, a viability, T/C [2] of 95.9% and a viability, T/C [3] of 112%. The viability, T/C [4] was 105%, the viability, T/C [5] was 92.1% and the viability, T/C [6] was 92.4%. It also gave a viability, T/C [7] of 116%, a viability, T/C [8] of 104% and a viability, T/C [9] of 93.7%. For the same compound, the viability, T/C [10] was 100%, the viability, T/C [11] was 91.2% and the viability, T/C [12] was 92.6%. It also gave a viability, T/C [13] of 103%, a viability, T/C [14] of 99.3% and a viability, T/C [15] of 92.6%. For the same compound, the viability, T/C [16] was 107%, the viability, T/C [17] was 95.1% and the viability, T/C [18] was 90.2%. For the same compound, the viability, T/C [19] was 96.1%, the viability, T/C [20] was 91.1% and the viability, T/C [21] was 108%. It also gave a viability, T/C [22] of 90.9%, a viability, T/C [23] of 90.6% and a viability, T/C [24] of 102%. It also gave a viability, T/C [25] of 94.7%, a viability, T/C [26] of 112% and a viability, T/C [27] of 103%. The viability, T/C [28] was 89.4%, the viability, T/C [29] was 96% and the viability, T/C [30] was 101%. For the same compound, the viability, T/C [31] was 95.9%, the viability, T/C [32] was 91.7% and the viability, T/C [33] was 119%. It also gave a viability, T/C [34] of 96.6%, a viability, T/C [35] of 94.3% and a viability, T/C [36] of 95.7%.
